Earlier results as cited in patent US20130136704A1, “P-MENTHANE-3,8-DIOL ISOMER MIXTURE, COMPOSITION COMPRISING THE SAME, AND PRODUCTS COMPRISING THE MIXTURE OR COMPOSITION” (TAKASAGO INTERNATIONAL CORPORATION, priority 2011, published 2013).

Details: Patent Literature 2

In the case of CC1CCC(C(C)(C)O)C(O)C1 (stereo not shown) [p-menthane-3,8-diol], the “concentration of p-menthane-3,8-diol in solution at which it is in a supersaturation state and crystals precipitate” value is given as no less than 60%.
